Test: Cell Surface Biotinylation Assay: Huh7.5.1 cells from four 150 mm plates were treated with DMSO, Roc-A (20 nM), or infected by HCVcc. 48 h post-transfection, cells were washed three times with ice-cold PBS and resuspended in PBS at a density of 25×10^6 cells/ml. Freshly prepared Sulfo-NHS-SS-biotin (Pierce) was added to the cells (final concentration […]) and allowed to incubate at 4° C. for 30 min. Cells were then washed three times with ice-cold PBS. 25 mM Tris (pH 8.0) was added in the initial wash to quench any non-reacted biotin reagent. Following cell lysis in RIPA buffer (50 mM Tris-HCl [pH 7.5], 150 mM NaCl, 1% NP-40, 0.25% sodium deoxycholate, 1 mM EDTA, 2 mM Na3VO4 and Pierce protease inhibitor cocktail), lysates were cleared by centrifugation at 13,000×g for 15 min at 4° C. The cleared lysates were used for immunoprecipitation using a 1:1 mixture of Streptavidin beads (Pierce). Beads were washed three times with RIPA buffer, and bound proteins were eluted by boiling the samples in SDS-PAGE sample buffer and then resolved on 9% SDS-PAGE. Biotinylated proteins were detected by anti-PHB1 and anti-PHB2 antibodies.
Conditions: Huh-7.5.1

COc1ccc([C@@]23Oc4cc(OC)cc(OC)c4[C@]2(O)c2nc4n(c(=O)c2[C@H]3c2ccccc2)CCC4)cc1 (racemic)
EC50: 100 nM
